In patent publication US20010053350A1, “Cosmetic composition comprising N-ethyloxycarbonyl-4-amino-phenol and arbutin or its derivatives and/or ellagic acid or its derivatives” (L'OREAL, priority 1999, published 2001):
In brackets after ≈: the same amount, converted by molar mass.

Legend:
[1] = system: fungal tyrosinase; assay: Inhibition of the activity of fungal tyrosinase in vitro (absorbance at 475 nm, L-tyrosine/L-dopa); format: biochemical; settings: for molar concentration at which an inhibition figure of 25% was observed: fungal tyrosinase, phosphate buffer, solvent ethanol (C1), water (C2)
Experimental: This test consisted in measuring the absorbance (optical density OD) at 475 nm, as a function of time, for each of the following active depigmenting principles:
N-ethyloxycarbonyl-4-para-aminophenol arbutin in solution (at different concentrations) in an appropriate solvent in the presence of a phosphate buffer, 1 ml of L-tyrosine at 2.0×10^−3 M in a phosphate buffer, 0.1 ml of L-dopa at 1.0×10^−4 M in a phosphate buffer and 50 μl of 1 g/l fungal tyrosinase solution in a phosphate buffer, compared with a control consisting of the solvent used, at the same concentration in the phosphate buffer. Percentage inhibition was subsequently determined by the following equation: [formula]
Subsequently, N-ethyloxycarbonyl-4-para-aminophenol and arbutin were mixed in concentrations C1 and C2 and N-ethyloxycarbonyl-4-para-aminophenol and ellagic acid were mixed in respective concentrations C1 and C3.

[2] = Upper solubility limit in the test solvent (DMSO); format: physicochemical; settings: organic solvent or mixture

CCOC(=O)Nc1ccc(O)cc1 [N-ethyloxycarbonyl-4-para-aminophenol]
molar concentration at which an inhibition figure of 25% was observed [1]: 125 µM

arbutin
molar concentration at which an inhibition figure of 25% was observed [1]: 333 µM

Oc1ccc(O)cc1 [hydroquinone]
molar concentration at which an inhibition figure of 25% was observed [1]: 80 µM

O=c1oc2c(O)c(O)cc3c(=O)oc4c(O)c(O)cc1c4c23 [ellagic acid]
inhibitory effect on tyrosinase activity ([1]; at concentration C3=1.35×10^−4 M (solubility limit in DMSO)): no inhibitory effect | solubility [2]: 135 µM (≈ 40.8 µg/mL)

CC(C)CCC[C@@H](C)[C@H]1CC[C@H]2[C@@H]3CC=C4C[C@@H](OC(=O)Nc5ccc(O)cc5)CC[C@]4(C)[C@H]3CC[C@]12C [N-cholesteryloxycarbonyl-4-para-aminophenol]
molar concentration at which an inhibition figure of 25% was observed [1]: 66.7 µM
